# ChEMBL document CHEMBL5244269, “Improving metabolic stability and removing aldehyde oxidase liability in a 5-azaquinazoline series of IRAK4 inhibitors” (Bioorg Med Chem, 2020)
# Columns and labels:
# SUD4 [1] = assay: Growth inhibition of human SU-DHL-4 cells at 0.33 uM incubated for 3 days (reference value: 2%); assay type: functional; conditions: SU-DHL-4, 72 h, time 3 day, read-out: GI
# SUD4 [2] = assay: Growth inhibition of human SU-DHL-4 cells at 0.17 uM incubated for 3 days (reference value: 2%); assay type: functional; conditions: SU-DHL-4, 72 h, time 3 day, read-out: GI
# SUD4 [3] = assay: Growth inhibition of human SU-DHL-4 cells at 3.3 uM incubated for 3 days (reference value: 2%); assay type: functional; conditions: SU-DHL-4, 72 h, time 3 day, read-out: GI
# [4] = Oral bioavailability in rat at 1 mg/kg; assay type: ADME, organism-based; conditions: in vivo
# [5] = Metabolic stability in dog hepatocytes assessed as intrinsic clearance measured per 10^6 cells; assay type: ADME, cell-based, Canis lupus familiaris, Hepatocyte; conditions: read-out: CLH
# [6] = Metabolic stability in mouse liver microsomes assessed as intrinsic clearance; assay type: ADME, Microsome; conditions: read-out: CLH
# [7] = Plasma protein binding in human assessed as free fraction by equilibrium dialysis analysis; assay type: ADME, cell-free
# [8] = Metabolic stability in human hepatocytes assessed as half life; assay type: ADME, cell-based, Hepatocyte
# [9] = Metabolic stability in mouse hepatocytes assessed as intrinsic clearance measured per 10^6 cells; assay type: ADME, cell-based, Hepatocyte; conditions: read-out: CLH
# [10] = Metabolic stability in dog liver microsomes assessed as intrinsic clearance; assay type: ADME, Canis lupus familiaris, Microsome; conditions: read-out: CLH
# [11] = Plasma protein binding in monkey assessed as free fraction by equilibrium dialysis analysis; assay type: ADME, cell-free, Macaca mulatta; conditions: rhesus monkey
# [12] = Metabolic stability in rat liver microsomes assessed as intrinsic clearance; assay type: ADME, Microsome; conditions: read-out: CLH
# [13] = Metabolic stability in human cytosol assessed as intrinsic clearance; assay type: ADME, subcellular
# [14] = Volume of distribution at steady state in CD1 mouse at 1 mg/kg, po or 0.5 mg/kg, iv; assay type: ADME, organism-based; conditions: in vivo
# [15] = Oral bioavailability in Han Wistar rat at 2 mg/kg; assay type: ADME, organism-based; conditions: in vivo
# [16] = Metabolic stability in minipig liver microsomes assessed as intrinsic clearance; assay type: ADME, Sus scrofa domesticus, Microsome; conditions: pig, read-out: CLH
# [17] = Terminal half life in Han Wistar rat at 1 mg/kg, iv; assay type: ADME, organism-based; conditions: in vivo, read-out: beta t1/2 (converted)
# [18] = Plasma protein binding in mouse assessed as free fraction by equilibrium dialysis analysis; assay type: ADME, cell-free
# OCI-Ly10 [19] = assay: Growth inhibition of human OCILY10 cells at 0.17 uM incubated for 3 days (Rvb= -2%); assay type: functional; conditions: OCI-Ly10, 72 h, time 3 day, read-out: GI
# OCI-Ly10 [20] = assay: Growth inhibition of human OCILY10 cells at 1.7 uM incubated for 3 days (reference value: -2%); assay type: functional; conditions: OCI-Ly10, 72 h, time 3 day, read-out: GI
compound,measurement,setting,value
Cc1ncc(-c2nc3c(NC(C)C)nc(Nc4cnn(C5CC6(C5)CN(C)C6)c4)nc3cc2F)cn1,inhibition of growth at 0.33 µM,SUD4 [1],3%
same,inhibition of growth at 0.17 µM,SUD4 [2],2%
same,inhibition of growth at 3.3 µM,SUD4 [3],4%
same,bioavailability,[4],≤ 10%
Cc1ncc(-c2nc3c(OC4(C)CC4)nc(Nc4cnn(C5CCN(C)CC5)c4)nc3cc2F)cn1,hepatocyte CLint,[5],4.5 µL/min/1e6 cells
same,microsomal CLint,[6],13 µL/min/mg
same,fraction unbound,[7],0.21
same,half-life,[8],30 h
same,hepatocyte CLint,[9],11 µL/min/1e6 cells
same,microsomal CLint,[10],21 µL/min/mg
same,fraction unbound,[11],0.33
same,microsomal CLint,[12],16 µL/min/mg
same,microsomal CLint,[13],< 0.5 µL/min/mg
same,Vdss,[14],4.1 L/kg
same,bioavailability,[15],55%
same,microsomal CLint,[16],18 µL/min/mg
same,half-life,[17],5.2 h
same,fraction unbound,[18],0.16
CC[C@@H]1[C@H](F)C(=O)N[C@@H]1COc1nccc2cc(C(N)=O)c(OC)cc12 [ZIMLOVISERTIB],inhibition of growth at 0.17 µM,OCI-Ly10 [19],5%
same,inhibition of growth at 1.7 µM,OCI-Ly10 [20],10%
